Among the test systems are A498 renal; CCRF-CEM leukemia; MDA-MB-231 breast; NCI-H226 lung; NCI/ADR-RES ovarian; PC-3 prostate; RXF 393 renal; SF-295 CNS; SK-MEL-28 melanoma; SW-620 colon; UACC-257 melanoma; HCC-2998 colon.
Holding throughout (test): NCI-60 cell line screen, 48 h

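Assay format: 96-well plates, 48-hour exposure. Definition used: TGI = concentration required for complete inhibition of growth.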

In PubChem BioAssay (NCI) one finds TGI data, which are given here for 12 compounds.

As for `CC(C(=O)n1ccnc1)N1c2ccccc2Sc2ccccc21` (configuration not stated), the TGI in the experiment with A498 renal, in the experiment on CCRF-CEM leukemia, in the experiment with MDA-MB-231 breast, in the experiment on NCI-H226 lung, with NCI/ADR-RES ovarian and in the experiment with PC-3 prostate was > 100 µM in each case. Also, the TGI with RXF 393 renal, with SF-295 CNS, in the experiment with SK-MEL-28 melanoma, with SW-620 colon and with UACC-257 melanoma was > 100 µM throughout.

With `CS(=O)(=O)O[C@H]1[C@H](O)c2ccccc2[C@@H]1N=[N+]=[N-]`, the TGI in the experiment with A498 renal, in the experiment with CCRF-CEM leukemia, in the experiment on HCC-2998 colon, in the experiment on MDA-MB-231 breast, with NCI-H226 lung and in the experiment with NCI/ADR-RES ovarian was > 100 µM each time. Also, the TGI in the experiment on PC-3 prostate, with RXF 393 renal, in the experiment on SF-295 CNS, in the experiment on SK-MEL-28 melanoma, in the experiment with SW-620 colon and in the experiment with UACC-257 melanoma was > 100 µM throughout.

Take `CC(=O)Nc1cc2nc3n(c2cc1C)CCC3OC(C)=O` (configuration not stated): the TGI with A498 renal, in the experiment with CCRF-CEM leukemia, in the experiment with HCC-2998 colon, with MDA-MB-231 breast, in the experiment with NCI-H226 lung and in the experiment on NCI/ADR-RES ovarian was > 100 µM throughout. Also, the TGI in the experiment with PC-3 prostate, in the experiment with RXF 393 renal, in the experiment with SF-295 CNS, in the experiment on SK-MEL-28 melanoma, in the experiment with SW-620 colon and in the experiment with UACC-257 melanoma was > 100 µM each time.

For the compound `COc1cc(C2OC[C@@H]3C(=O)OC[C@H]23)cc(O)c1OC` (some centres not stated), the TGI in the experiment on A498 renal, with CCRF-CEM leukemia, in the experiment with HCC-2998 colon, in the experiment with MDA-MB-231 breast, in the experiment on NCI-H226 lung and with NCI/ADR-RES ovarian was > 100 µM throughout. In addition, the TGI in the experiment on PC-3 prostate, in the experiment with RXF 393 renal, in the experiment on SF-295 CNS, with SW-620 colon and in the experiment with UACC-257 melanoma was > 100 µM in each case.

For the compound `CN1CC2=C(NC(=S)NC2c2ccccc2Cl)/C(=C/c2ccccc2Cl)C1` (configuration not stated), the TGI in the experiment on A498 renal, in the experiment with CCRF-CEM leukemia, in the experiment on HCC-2998 colon, in the experiment with MDA-MB-231 breast, with NCI-H226 lung and with NCI/ADR-RES ovarian was > 100 µM each time. In addition, the TGI in the experiment on PC-3 prostate, with RXF 393 renal, in the experiment on SF-295 CNS, with SK-MEL-28 melanoma, with SW-620 colon and with UACC-257 melanoma was > 100 µM in each case.

`COC(=O)[C@]12CSC[C@H]1C[C@H](c1cccc3ccccc13)N2`: the TGI in the experiment with A498 renal, in the experiment with CCRF-CEM leukemia, with HCC-2998 colon, in the experiment with MDA-MB-231 breast, in the experiment with NCI-H226 lung and in the experiment on NCI/ADR-RES ovarian was > 100 µM each time. The TGI in the experiment with PC-3 prostate, in the experiment with SF-295 CNS, in the experiment on SK-MEL-28 melanoma, with SW-620 colon and in the experiment with UACC-257 melanoma was > 100 µM in each case.

As for `CN(C)CC1CCC/C(=C\c2ccccc2)C1=O` (configuration not stated), the TGI in the experiment with A498 renal is 31.2 µM; in the experiment with CCRF-CEM leukemia, > 100 µM; in the experiment with HCC-2998 colon, 29 µM; in the experiment on MDA-MB-231 breast, 4.18 µM; in the experiment on NCI-H226 lung, 8.26 µM; in the experiment on NCI/ADR-RES ovarian it was 41.6 µM. Further, the TGI amounted to 21 µM in the experiment on PC-3 prostate; 7.38 µM with RXF 393 renal; 35.2 µM with SF-295 CNS; 6.04 µM in the experiment on SK-MEL-28 melanoma; 3.07 µM with SW-620 colon; 7.45 µM in the experiment with UACC-257 melanoma.

Turning to `CC(=O)Oc1ccc2cc(-c3ccc(OC(C)=O)c(OC(C)=O)c3)c(=O)oc2c1`, the TGI with A498 renal, in the experiment with CCRF-CEM leukemia, in the experiment on HCC-2998 colon, in the experiment on MDA-MB-231 breast, in the experiment with NCI-H226 lung and in the experiment with NCI/ADR-RES ovarian was > 100 µM throughout. Further, the TGI in the experiment on PC-3 prostate, with SF-295 CNS, with SK-MEL-28 melanoma, in the experiment with SW-620 colon and in the experiment on UACC-257 melanoma was > 100 µM throughout.

Turning to `O=C1CC2CC(CC3(CO3)C2)C1F` (configuration not stated), the TGI in the experiment with A498 renal, in the experiment on CCRF-CEM leukemia, with HCC-2998 colon, with MDA-MB-231 breast, with NCI-H226 lung and in the experiment on NCI/ADR-RES ovarian was > 100 µM each time. For the same compound, the TGI in the experiment with PC-3 prostate, in the experiment with RXF 393 renal, with SF-295 CNS, in the experiment on SK-MEL-28 melanoma and with UACC-257 melanoma was > 100 µM each time.

`Cc1cn(C2CCN(CC3COC(C)(C)O3)O2)c(=O)[nH]c1=O` (configuration not stated): the TGI in the experiment with A498 renal, with CCRF-CEM leukemia, in the experiment on MDA-MB-231 breast, in the experiment with NCI-H226 lung, in the experiment with NCI/ADR-RES ovarian and with PC-3 prostate was > 100 µM throughout. The TGI in the experiment on RXF 393 renal, in the experiment with SF-295 CNS, in the experiment on SK-MEL-28 melanoma, in the experiment on SW-620 colon and in the experiment with UACC-257 melanoma was > 100 µM each time.

Take `O=[N+]([O-])C(/C=C(\Cl)[N+](=O)[O-])=C(N1CCCCC1)N1CCCCC1`: the TGI was 93.3 µM in the experiment on A498 renal; 59 µM in the experiment with CCRF-CEM leukemia; > 100 µM with HCC-2998 colon; > 100 µM in the experiment with MDA-MB-231 breast; > 100 µM with NCI-H226 lung; > 100 µM with NCI/ADR-RES ovarian. In addition, the TGI is > 100 µM with PC-3 prostate; > 100 µM with RXF 393 renal; > 100 µM with SF-295 CNS; > 100 µM in the experiment with SK-MEL-28 melanoma; 69.2 µM with UACC-257 melanoma.

With `COc1cc(CNc2c3ccccc3nc3ccccc23)cc(OC)c1OC`, the TGI is 7.71 µM in the experiment with A498 renal; > 23.2 µM with CCRF-CEM leukemia; 11.9 µM with HCC-2998 colon; 23.6 µM with MDA-MB-231 breast; 10.3 µM in the experiment on NCI-H226 lung; 14.2 µM in the experiment on NCI/ADR-RES ovarian. For the same compound, the TGI in the experiment with PC-3 prostate was 11.9 µM; in the experiment with RXF 393 renal, 9.04 µM; in the experiment with SF-295 CNS it was 14.4 µM; with SK-MEL-28 melanoma, 20.2 µM; in the experiment with SW-620 colon, 10.1 µM; in the experiment with UACC-257 melanoma, 11.2 µM.
